{"source": "patent US9580398B2", "about": "“Compounds, compositions, and methods for modulating ferroptosis and treating excitotoxic disorders” (The Trustees of Columbia University in the City of New York, priority 2012, dated 2017)"}
{"tested_on": "erastin (10 μM)-treated HT-1080 cells", "assay": "Inhibition of death in erastin (10 μM)-treated HT-1080 cells, viability by Alamar Blue", "format": "cell-based, human", "conditions": "Homo sapiens, HT-1080", "protocol": "(§1) Cell viability was typically assessed in 384-well format by Alamar Blue (Invitrogen) fluorescence (ex/em 530/590) measured on a Victor3 platereader (Perkin Elmer, Waltham, Mass.). In some experiments, Trypan Blue dye exclusion counting was performed using an automated cell counter (ViCell, Beckman-Coulter Inc., Brea, Calif.). Cell viability in test conditions is reported as a percentage relative to the negative control treatment.\n(§2) Flow cytometry data was analyzed using FloJo (9.3.2, Tree Star, Inc., Ashland, Oreg.). Chemical structures were drawn using ChemDraw Ultra (Cambridgesoft, Cambridge, Mass.). Computational determination of log P (Slog P function) was performed using MOE 2010.10 (Chemical Computing Group, Montreal, […].). Viability data was analyzed using Excel (Microsoft Corp., […].). Summary data and heatmaps were generated using R. Dose-response curves were computed by 4-parameter logistic regression in Prism 5.0c (GraphPad Software). Images were manipulated using Photoshop CS4 and Illustrator CS4 (Adobe, San Jose, Calif.).\n(§3) The ability of various compounds disclosed herein to inhibit death in erastin (10 μM)-treated HT-1080 cells were tested. Cell viability was assessed by Alamar Blue. EC50 values (nM) were computed from dose response curves.", "units": {"EC50": "nM"}}
{"smiles": "NCCOCCOC(=O)c1ccc(NC2CCCCC2)c(N)c1", "note": "[SRS8-43, 2-(2-aminoethoxy)ethyl 3-amino-4-(cyclohexylamino)benzoate]", "EC50": 420}
{"smiles": "Nc1ccccc1NC1CCCCC1", "note": "[SRS8-75, N1-cyclohexylbenzene-1,2-diamine]", "EC50": 330}
{"tested_on": "erastin (10 μM)-treated HT-1080 cells", "assay": "Inhibition of death in erastin (10 μM)-treated HT-1080 cells, viability by Alamar Blue", "format": "cell-based, human", "conditions": "Homo sapiens, HT-1080, inhibition of death in erastin (10 μM)-treated HT-1080 cells; Alamar Blue; from dose response curves", "protocol": "as §1, §2, §3", "units": {"EC50": "nM"}}
{"smiles": "CC(C)(C)OC(=O)CCOCCOC(=O)c1ccc(NC2CCCCC2)c(N)c1", "note": "[SRS8-37, 2-(2-(tert-butoxycarbonyl)ethoxy)ethyl 3-amino-4-(cyclohexylamino)benzoate]", "EC50": 160}
{"smiles": "CCOC(=O)c1ccc(NC2CCOCC2)c(N)c1", "note": "[SRS8-41, ethyl 3-amino-4-(tetrahydro-2H-pyran-4-ylamino)benzoate]", "EC50": 1450}
{"smiles": "CCOC(=O)c1ccc(NN2CCN(C)CC2)c(N)c1", "note": "[SRS8-53, ethyl 3-amino-4-(4-methylpiperazin-1-ylamino)benzoate]", "EC50": 3600}
{"smiles": "CCOC(=O)c1ccc(Cl)c(N)c1", "note": "[SRS8-62, ethyl 3-amino-4-chlorobenzoate]", "EC50": "> 10000"}
{"smiles": "CCOC(=O)c1ccc(NC2CCC2)c(N)c1", "note": "[SRS8-71, ethyl 3-amino-4-(cyclobutylamino)benzoate]", "EC50": 265}
{"smiles": "CCOC(=O)c1ccc(NC2CCCC2)c(N)c1", "note": "[SRS8-73, ethyl 3-amino-4-(cyclopentylamino)benzoate]", "EC50": 120}
{"smiles": "CCOC(=O)c1ccc(NC2CCNCC2)c(N)c1", "note": "[SRS8-81, ethyl 3-amino-4-(piperidin-4-ylamino)benzoate]", "EC50": 350}
{"smiles": "CCOC(=O)c1ccc(NC2CCCCCC2)c(N)c1", "note": "[SRS8-90, ethyl 3-amino-4-(cycloheptylamino)benzoate]", "EC50": 130}
{"smiles": "CCOC(=O)c1ccc(NC2CCCCCCC2)c(C(=O)OC(C)(C)C)c1", "note": "[SRS8-91, ethyl 3-(tert-butoxycarbonyl)-4-(cyclooctylamino)benzoate]", "EC50": "> 10000"}
{"smiles": "CCOC(=O)c1ccc(NC2CCC(C(C)(C)C)CC2)c(N)c1", "note": "(centres unmarked) [SRS8-92, ethyl 3-amino-4-(4-tert-butylcyclohexylamino)benzoate]", "EC50": 42}
{"smiles": "CCOC(=O)c1ccc(NC2CCCCCCC2)c(N(C)C)c1", "note": "[SRS9-01, ethyl 4-(cyclooctylamino)-3-(dimethylamino)benzoate]", "EC50": 3460}
{"smiles": "CCCCCCCCN(CCCCCCCC)c1ccc(C(=O)OCC)cc1N", "note": "[SRS12-12, ethyl 3-amino-4-(dioctylamino)benzoate]", "EC50": "> 10000"}
{"smiles": "CCOC(=O)c1ccc(NC2CCCCC2)c(NCc2ccc([N+](=O)[O-])cc2)c1", "note": "[SRS12-36, ethyl 4-(cyclohexylamino)-3-((4-nitrobenzyl)amino)benzoate]", "EC50": 35}
{"smiles": "CCOC(=O)c1ccc(NC2CCCCC2)c(NCc2ccccn2)c1", "note": "[SRS12-46, ethyl 4-(cyclohexylamino)-3-(pyridin-2-ylmethylamino)-benzoate]", "EC50": 32}
{"smiles": "CCOC(=O)c1ccc(NC2CCCCC2)c(NCc2ccc3ccccc3c2)c1", "note": "[SRS12-51, ethyl 4-(cyclohexylamino)-3-(naphthalen-2-ylmethylamino)-benzoate]", "EC50": 56}
{"smiles": "CCOC(=O)c1ccc(NC2CCCCC2)c(NCc2ccc(F)c(C#N)c2)c1", "note": "[SRS12-54, ethyl 3-(3-cyano-4-fluorobenzylamino)-4-(cyclohexylamino)-benzoate]", "EC50": 158}
{"smiles": "CCOC(=O)c1ccc(NC2CCCCC2)c(NCc2cc(F)cc(F)c2)c1", "note": "[SRS12-59, ethyl 4-(cyclohexylamino)-3-(3,5-difluorobenzylamino)-benzoate]", "EC50": 95}
{"smiles": "CCOC(=O)c1ccc(NC2CCCCC2)c(NCc2ccc(C(=O)OC)cc2)c1", "note": "[SRS12-69, ethyl 4-(cyclohexylamino)-3-(4-(methoxycarbonyl)-benzylamino)benzoate]", "EC50": 58}
{"smiles": "CCOC(=O)c1ccc(CNc2cc(C(=O)OCC)ccc2NC2CCCCC2)cc1", "note": "[SRS12-84, ethyl 4-(cyclohexylamino)-3-(4-(ethoxycarbonyl)benzylamino)-benzoate]", "EC50": 52}
{"smiles": "CCOC(=O)c1ccc(NC2CCCCC2)c(NCc2cncnc2)c1", "note": "[SRS13-35, ethyl 4-(cyclohexylamino)-3-(pyrimidin-5-ylmethylamino)-benzoate]", "EC50": 27}
{"smiles": "CCOC(=O)c1ccc(NC2CCC(C(C)(C)C)CC2)c(NCc2cncnc2)c1", "note": "(centres unmarked) [SRS13-37, ethyl 4-(4-tert-butylcyclohexylamino)-3-(pyrimidin-5-ylmethylamino)benzoate]", "EC50": 15}
{"smiles": "CCOC(=O)c1cc(N)c(NC2CCCCC2)cc1F", "note": "[SRS14-55, ethyl 5-amino-4-(cyclohexylamino)-2-fluorobenzoate]", "EC50": 104}
{"smiles": "CCOC(=O)c1cc(N)c(NC2CCCCC2)cc1Cl", "note": "[SRS14-57, ethyl 5-amino-2-chloro-4-(cyclohexylamino)benzoate]", "EC50": 54}
{"smiles": "CCOC(=O)c1cc(N)c(NC2CCCCC2)cc1C", "note": "[SRS14-58, ethyl 5-amino-4-(cyclohexylamino)-2-methylbenzoate]", "EC50": 28}
{"smiles": "CCOC(=O)c1cnc(NC2CCCCC2)c(N)c1", "note": "[SRS14-86, ethyl 5-amino-6-(cyclohexylamino)pyridine-3-carboxylate]", "EC50": 544}
{"smiles": "CCOC(=O)c1cnc(NC2CCCCC2)c(NCc2ccccc2)c1", "note": "[SRS14-91, ethyl 5-(benzylamino)-6-(cyclohexylamino)pyridine-3-carboxylate]", "EC50": 48}
{"smiles": "CCOC(=O)c1cnc(NC2CCCCC2)c(NCc2ccncc2)c1", "note": "[SRS14-92, ethyl 6-(cyclohexylamino)-5-(pyridin-4-ylmethylamino)pyridine-3-carboxylate]", "EC50": 194}
{"smiles": "CCOC(=O)c1cnc(NC2CCCCC2)c(NCc2ccncn2)c1", "note": "[SRS14-93, ethyl 6-(cyclohexylamino)-5-(pyrimidin-4 ylmethylamino)-pyridine-3-carboxylate]", "EC50": 1550}
{"smiles": "CCOC(=O)c1ccc(NC2C3CC4CC(C3)CC2C4)c(N)c1", "note": "(centres unmarked) [SRS15-17, ethyl 3-amino-4-(2-adamantylamino)benzoate]", "EC50": 171}
{"smiles": "CCOC(=O)c1ccc(NC23CC4CC(CC(C4)C2)C3)c(N)c1", "note": "[SRS15-18, ethyl 3-amino-4-(1-adamantylamino)benzoate]", "EC50": 88}
{"smiles": "CCOC(=O)c1ccc(NC2C3CC4CC(C3)CC2C4)c(NCc2ccccc2)c1", "note": "(centres unmarked) [SRS15-20-mono, ethyl 3-(benzylamino)-4-(2-adamantylamino)benzoate]", "EC50": 22}
{"smiles": "CCOC(=O)c1ccc(NC2C3CC4CC(C3)CC2C4)c(NCc2ccncc2)c1", "note": "(centres unmarked) [SRS15-21, ethyl 4-(2-adamantylamino)-3-((pyridin-4-ylmethyl)amino)-benzoate]", "EC50": "< 5"}
{"smiles": "CCOC(=O)c1ccc(NC2C3CC4CC(C3)CC2C4)c(NCc2cncnc2)c1", "note": "(centres unmarked) [SRS15-22, ethyl 4-(2-adamantylamino)-3-(pyrimidin-5-ylmethylamino)-benzoate]", "EC50": 21}
{"smiles": "CCOC(=O)c1ccc(NC23CC4CC(CC(C4)C2)C3)c(NCc2ccncc2)c1", "note": "[SRS15-24, ethyl 4-(1-adamantylamino)-3-((pyridin-4-ylmethyl)amino)-benzoate]", "EC50": 9}
{"smiles": "CCOC(=O)c1ccc(NC23CC4CC(CC(C4)C2)C3)c(NCc2cncnc2)c1", "note": "[SRS15-25, ethyl 4-(1-adamantylamino)-3-(pyrimidin-5-ylmethylamino)-benzoate]", "EC50": 54}
{"tested_on": "erastin (10 μM)-treated HT-1080 cells", "assay": "Inhibition of death in erastin (10 μM)-treated HT-1080 cells, viability by Alamar Blue", "format": "cell-based, human", "conditions": "inhibition of death in erastin (10 μM)-treated HT-1080 cells; Alamar Blue; from dose response curves", "protocol": "as §1, §2, §3", "units": {"EC50": "nM"}}
{"smiles": "CCOC(=O)c1ccc(NC2CCC(C(=O)OC(C)(C)C)CC2)c(N)c1", "note": "(centres unmarked) [SRS8-46, ethyl 3-amino-4-(4-(tert-butoxycarbonyl)cyclohexylamino) benzoate]", "EC50": 515}
